Patent publication US6960606B2, “Adamantyl Thiazole Thioureas” (Parker Hughes Institute, priority 2000, dated 2005)
Where two headings read alike, the source gives them in different places.

Legend:
[1] = test system: NNRTI-resistant HIV-1 strain A17 with a Y181C mutation in RT; test: microbe, parasite or virus in culture; type: cell-based; conditions: for effective concentrations against NNRTI-resistant HIV-1 isolate A17 (in words): both NNRTI-resistant isolates
[2] = test system: human peripheral blood mononuclear cells (PBMC); test: Cell viability / cytotoxicity in PBMC; type: cell-based; conditions: for CC50: cytotoxic concentration, PBMC viability
Description: (§1) Normal human peripheral blood mononuclear cells (PBMNC) from HIV-negative donors were cultured 72 hours in RPMI 1640 supplemented with 20% (v/v) heat-inactivated fetal bovine serum (FBS), 3% interleukin-2, 2 mM L-glutamine, 25 mM HEPES, 2 g/L NaHCO3, 50 μg/mL gentamicin, and 4 μg/mL phytohemagglutinin prior to exposure to the HIV-1 strain HTLVIIIB. The cells were then infected with virus at a multiplicity of infection (MOI) of 0.1 during a 1-hour adsorption period at 37° C. in a humidified 5% CO2 atm. Subsequently, cells were cultured in 96-well microtiter plates (100 μl/well; 2×10^6 cells/mL) in the presence of various inhibitor concentrations. Aliquots of culture supernatants were removed from the wells on the 7th day after infection for p24 antigen assays. The applied p24 enzyme immunoassay (EIA) was the unmodified kinetic assay commercially available from Coulter Corporation/Immunotech, Inc. (Westbrooke, Me.), which utilizes a murine mAb to HIV core protein coated onto microwell strips to which the antigen present in the test culture supernatant samples binds. Percent viral inhibition was calculated by comparing the p24 values from the test substance-treated infected cells with p24 values from untreated infected cells (i.e., virus controls). The effects of various treatments on cell viability were also examined and the results were expressed as the cytotoxic concentration (CC)50 values. The selectivity indices (SI) were calculated using the formula: SI=CC50/IC50.

HIV-1 strain HTLVIIIB = test: Inhibition of HIV-1 HTLVIIIB replication in PBMC (p24 antigen EIA); type: cell-based; conditions: for IC50: HIV-1 HTLVIIIB in human PBMC, p24 on day 7, read-out: IC50 HTLVHIB
Description: as §1

[3] = test system: A17 variant with Y181C plus K103N mutations in RT; test: microbe, parasite or virus in culture; type: cell-based, HIV-1; conditions: for effective concentrations against NNRTI-resistant HIV-1 isolate A17 variant (in words): both NNRTI-resistant isolates
[4] = NNRTI-resistant HIV, A17 (Y181C), read-out: IC50 A17
[5] = NNRTI-resistant HIV, A17 variant (Y181C plus K103N), read-out: IC50 A17 variant
[6] = Human immunodeficiency virus 1, read-out: IC50 A17
[7] = Human immunodeficiency virus 1, 168 h
[8] = Human immunodeficiency virus 1, read-out: IC50 A17 variant

Compound	CC50 [2] [µM]	IC50 values, inhibition of HIV-1 replication (in words) (HIV-1 strain HTLVIIIB)	IC50 (HIV-1 strain HTLVIIIB) [µM]	IC50 [3, 5] [µM]	also measured
N-[3-(2-Imidazole)propyl]-N′-[2-(thiazolyl)]thiourea [Compound 7]	35	subnanomolar	< 0.001	> 100	IC50 [1, 4]: > 100 µM
CC(C)Nc1cccnc1N1CCN(C(=O)c2cc3cc(NS(C)(=O)=O)ccc3[nH]2)CC1 [Delavirdine, reference compound]					IC50 [1, 6]: 50 µM; IC50 (HIV-1 strain HTLVIIIB; [7]): 0.009 µM; IC50 [3, 8]: > 100 µM
N-[2-(2-Piperdine)ethyl]-N′-[2-(thiazolyl)]thiourea [Compound 9]			> 100		
Cc1ccnc2c1NC(=O)c1cccnc1N2C1CC1 [Nevirapine, reference compound]					IC50 [1, 6]: > 100 µM; IC50 (HIV-1 strain HTLVIIIB; [7]): 0.034 µM; IC50 [3, 8]: > 100 µM
N-[1-(1-Furoylmethyl)]-N′-[2-(thiazolyl)]thiourea [Compound 6]	> 100	subnanomolar	< 0.001	0.6	effective concentrations against NNRTI-resistant HIV-1 isolate A17 (in words) [1]: nanomolar to low micromolar; toxicity to PBMC (in words) [2]: minimally toxic; effective concentrations against NNRTI-resistant HIV-1 isolate A17 variant (in words) [3]: nanomolar to low micromolar
N-[2-(1-Cyclohexenylethyl)]-N′-[2-(thiazolyl)]thiourea [Compound 2]	4		0.007	> 100	IC50 [1, 4]: 0.9 µM
N-[2-(2-Indole)ethyl]-N′-[2-(thiazolyl)]thiourea [Compound 8]	28	subnanomolar	< 0.001		effective concentrations against NNRTI-resistant HIV-1 isolate A17 (in words) [1]: nanomolar to low micromolar; effective concentrations against NNRTI-resistant HIV-1 isolate A17 variant (in words) [3]: nanomolar to low micromolar
N-[2-(4-Methylphenyl)ethyl]-N′-[2-(thiazolyl)]thiourea [Compound 4]	> 100		0.07	> 100	
N-[2-(4-Hydroxyphenyl)ethyl]-N′-[2-(thiazolyl)]thiourea [Compound 10]			> 100		
N-[3-(Pyrrolidinone)propyl]-N′-[2-(thiazolyl)]thiourea [Compound 12]	18		9		
N-[2-Pyridylethyl]-N′-[2-(thiazolyl)]thiourea [Compound 11]	100		1		
N-[2-(2-Thiophenylethyl)]-N′-[2-(thiazolyl)]thiourea [Compound 1]	71	subnanomolar	< 0.001		IC50 [1, 4]: > 100 µM
N-[2-(Phenoxyethyl)]-N′-[2-(thiazolyl)]thiourea [Compound 3]	> 100	subnanomolar	< 0.001	> 100	
N-[1-(1-Adamantyl)methyl]-N′-[2-(thiazolyl)]thiourea [Compound 5]	40	subnanomolar	< 0.001		IC50 [1, 4]: 0.6 µM; effective concentrations against NNRTI-resistant HIV-1 isolate A17 (in words) [1]: nanomolar to low micromolar; effective concentrations against NNRTI-resistant HIV-1 isolate A17 variant (in words) [3]: nanomolar to low micromolar
